Data published in patent publication US9834520B2, “Heterocyclic compound” (TAKEDA PHARMACEUTICAL COMPANY LIMITED, priority 2013, dated 2017).
Like-named read-outs stand apart in the source and are kept apart here.

Tests used:
Th17 cells = test: Mouse Th17 cell differentiation test (IL-17A by ELISA); format: cell-based; conditions: 96 h, 10 μM of test compound, IL-17A in culture supernatant, 4 days, read-out: inhibitory rate(%)
Experimental: Mouse Th17 Cell Differentiation Test
CD4 positive naive T cells were collected from the spleen cells of Balb/c mice (female, 8-11w) using CD4+CD62L+ T Cell Isolation kit II (Miltenyi Biotec). The CD4 positive naive T cells was plated in a 96 well plate (3×10^5 cells/well), and stimulated (37° C. for culture) with anti-mouse CD3ε antibody (10 μg/mL, solid phase) and anti-CD28 antibody (5 μg/mL) for 4 days in the presence of anti-IFN-γ antibody, anti-IL-4 antibody, anti-IL-2 antibody, IL-6, TGF-β and IL-23 to differentiate into Th17 cells. The compound was dissolved in DMSO and then added thereto. The cells were cultured under these conditions for 4 days, and differentiation of the Th17 cells was evaluated by using the concentration of IL-17A, which was measured by ELISA, in the culture supernatant obtained by centrifugation.

human PBMC = test: IL17 production test in human PBMC; format: cell-based; conditions: 72 h, 10 μM of test compound, IL-17A in culture supernatant, 3 days, read-out: inhibitory rate (%)
Experimental: IL17 Production Test in Human PBMC
Peripheral blood mononuclear cells (PBMC) collected from human peripheral blood by a density gradient centrifugation method were stimulated by Dynabeads (registered trade mark; anti-CD3/CD28 antibody) and cultured at 37° C. for 3 days. The test compound was dissolved in DMSO and then added thereto. After culture for 3 days under such conditions, the concentration of IL-17A in the culture supernatant obtained by centrifugation was measured by ELISA to evaluate the effect of the compound on IL-17 production.

RORγt [1] = biological target: T1, RORγt (Homo sapiens, UniProt P51449); test: RORγt binding test (TR-FRET, fluorescent-labeled cholesterol); conditions: binding inhibitory rate of fluorescent-labeled cholesterol to RORγt at test compound 1 μM
T1 sequence (P51449 1-497 isoform P51449-2): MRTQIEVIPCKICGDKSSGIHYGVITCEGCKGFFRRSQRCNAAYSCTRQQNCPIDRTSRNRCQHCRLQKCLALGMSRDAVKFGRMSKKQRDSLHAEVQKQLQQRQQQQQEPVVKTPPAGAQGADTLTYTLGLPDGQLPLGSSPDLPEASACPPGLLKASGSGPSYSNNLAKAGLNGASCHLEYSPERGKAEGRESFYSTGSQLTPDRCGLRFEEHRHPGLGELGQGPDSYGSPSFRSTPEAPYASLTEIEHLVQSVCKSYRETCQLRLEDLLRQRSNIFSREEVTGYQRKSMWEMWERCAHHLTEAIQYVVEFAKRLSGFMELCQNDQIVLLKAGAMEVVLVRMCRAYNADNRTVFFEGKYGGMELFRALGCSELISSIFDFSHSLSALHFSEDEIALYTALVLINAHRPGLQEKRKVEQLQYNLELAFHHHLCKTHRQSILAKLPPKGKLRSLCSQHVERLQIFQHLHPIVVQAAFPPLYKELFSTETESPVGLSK
Experimental: The binding activity of the test compound to RORγt was measured by a time resolved fluorescence resonance energy transfer method (TR-FRET) utilizing histidine-tagged RORγt, fluorescent-labeled cholesterol (BODIPY-cholesterol, AVIVA) and terbium-labeled anti-histidine tag antibody (Invitrogen). First, a test compound diluted with an assay buffer (20 mM Tris-HCl (pH 7.5), 100 mM NaCl, 1 mM DTT, 0.1% BSA) was added to a 384 well plate by 3 μL each. Then, RORγt diluted with an assay buffer to 240 nM was added by 3 μL each, after which fluorescent-labeled cholesterol diluted with the assay buffer to 12 μM was added by 3 μL each, and the mixture was stood at room temperature for 20 min. Thereafter, a terbium-labeled anti-histidine tag antibody diluted with the assay buffer to 8 nM was added by 3 μL each. The mixture was stood at room temperature for 20 min, and fluorescence intensity (excitation wavelength 320 nm, fluorescence wavelength 520 nm, delay time 100 microseconds) was measured by Envision (PerkinElmer).

RORγt [2] = biological target: T1, RORγt; test: Cofactor recruitment test (Alpha Screen, biotinylated SRC-1 peptide); format: biochemical; conditions: test compound 1 μM; read-out: signal value inhibitory rate (%)
Experimental: Cofactor Recruitment Test
Cofactor recruitment test was performed by Alpha Screen (Histidine Detection Kit, PerkinElmer) method. First, a test compound diluted with an assay buffer (50 mM Tris-HCl (pH 7.5), 50 mM KCl, 1 mM DTT, 0.1% BSA) was added to a 384 well plate by 5 μL each. […] The mixture was stood in a dark place for 1 hr, and the signal value was measured by Envision (PerkinElmer).

RORγt [3] = biological target: T1, RORγt; test: Jurkat reporter test (IL-17 ROR response element luciferase); format: cell-based; parameters: expressed in transfected cells; host or cells: Jurkat cells; conditions: test compound 3 μM, Jurkat cells, read-out: luminescence level inhibitory rate (%)
Experimental: The Jurkat cells used for the reporter test were cultured in a culture medium (RPMI (Invitrogen), 10% FCS (AusGeneX), 100 U/mL penicillin, 100 μg/mL streptomycin). On the day of the test, 4×10^7 cells were recovered by a centrifugal operation (1000 rpm, 5 min.) and suspended in PBS (phosphate buffered saline) (Invitrogen). Thereafter, the cells were recovered again by a centrifugal operation, and suspended in 2 mL of R buffer (NEON transfection kit, Invitrogen). […] Gene transfer was performed by Electroporation apparatus (NEON, Invitrogen) under the conditions of pulse voltage 1350 V, interval 10 milliseconds, number of times 3. The cells after gene transfer were suspended in 40 mL of a reaction medium (RPMI, 10% Lipid reduced FCS (HyClone), 10 mM HEPES (pH 7.5), 100 U/mL penicillin, 100 μg/mL streptomycin, 5 μM lovastatin), and plated in a 96 well plate by 90 μL each. A test compound diluted with the reaction medium was added by 10 μL each, and the cells were cultured overnight in an incubator. Bright-Glo (Promega) was added by 100 μL each, and the mixture was stirred at room temperature for 10 min, and the luminescence level was measured by Envision (PerkinElmer).

Structure (SMILES)	inhibition at 10 µM (Th17 cells)	inhibition at 10 µM (human PBMC)	inhibition at 1 µM (RORγt [1])	inhibition at 1 µM (RORγt [2])	inhibition at 3 µM (RORγt [3]; Jurkat)	inhibition at 3 µM (RORγt [3])
CC(CC(=O)Nc1ccc(C#N)c(Cl)c1)CC(=O)Nc1ccc2c(c1)c(=O)n(CC1CC1)c(=O)n2CC1CC1 (centres unmarked) [Example 2, N-(1,3-bis(cyclopropylmethyl)-2,4-dioxo-1,2,3,4-tetrahydroquinazolin-6-yl)-N′-(3-chloro-4-cyanophenyl)-3-methylpentanediamide]	97%	96%	–	–	–	–
CCn1c(=O)c2cc(C(=O)NCC(C)CC(=O)Nc3ccc(C#N)c(Cl)c3)ccc2n(CC)c1=O (centres unmarked) [Example 4, N-(4-((3-chloro-4-cyanophenyl)amino)-2-methyl-4-oxobutyl)-1,3-diethyl-2,4-dioxo-1,2,3,4-tetrahydroquinazoline-6-carboxamide]	–	97%	96.7%	105%	116%	–
CCC1Oc2cc(NC(=O)CC(C)CC(=O)Nc3ccc(C#N)c(Cl)c3)ccc2N(CC)C1=O (centres unmarked) [Example 7, N-(3-chloro-4-cyanophenyl)-N′-(2,4-diethyl-3-oxo-3,4-dihydro-2H-1,4-benzoxazin-7-yl)-3-methylpentanediamide]	–	100%	–	–	–	–
CCN1C(=O)C(c2ccccc2)Oc2cc(NC(=O)CC(C)CC(=O)Nc3ccc(C#N)c(Cl)c3)ccc21 (centres unmarked) [Example 12, N-(3-chloro-4-cyanophenyl)-N′-(4-ethyl-3-oxo-2-phenyl-3,4-dihydro-2H-1,4-benzoxazin-7-yl)-3-methylpentanediamide]	97%	97%	98.3%	104%	120%	–
CCn1c(=O)c2cc(C(=O)NCC(CC(=O)Nc3ccc(C#N)c(Cl)c3)C(C)C)ccc2n(CC)c1=O (centres unmarked) [Example 17, N-(4-((3-chloro-4-cyanophenyl)amino)-2-isopropyl-4-oxobutyl)-1,3-diethyl-2,4-dioxo-1,2,3,4-tetrahydroquinazoline-6-carboxamide]	–	84%	101%	103%	121%	–
CCn1c(=O)c2cc(NC(=O)CC(C)CNC(=O)c3ccc(C#N)c(Cl)c3)ccc2n(CC)c1=O (centres unmarked) [Example 23, 3-chloro-4-cyano-N-(4-((1,3-diethyl-2,4-dioxo-1,2,3,4-tetrahydroquinazolin-6-yl)amino)-2-methyl-4-oxobutyl)benzamide]	94%	–	97.3%	104%	–	115%
CCn1c(=O)c2cc(NC(=O)CC(C)CC(=O)Nc3ccc(C#N)c(Cl)c3)ccc2n(C[Si](C)(C)C)c1=O (centres unmarked) [Example 126, N-(3-chloro-4-cyanophenyl)-N′-(3-ethyl-2,4-dioxo-1-((trimethylsilyl)methyl)-1,2,3,4-tetrahydroquinazolin-6-yl)-3-methylpentanediamide]	–	–	103%	100%	102%	–
CCn1c(=O)c2cc(NC(=O)CC(C)CC(=O)Nc3ccc(C#N)c(Cl)c3)cc(F)c2n(CC)c1=O (centres unmarked) [Example 129, N-(3-chloro-4-cyanophenyl)-N′-(1,3-diethyl-8-fluoro-2,4-dioxo-1,2,3,4-tetrahydroquinazolin-6-yl)-3-methylpentanediamide]	–	–	100%	100%	102%	–
CCn1c(=O)c2cc(NC(=O)CC(C)CC(=O)Nc3ccc(C#N)c(Cl)c3)c(F)cc2n(CC)c1=O (centres unmarked) [Example 130, N-(3-chloro-4-cyanophenyl)-N′-(1,3-diethyl-7-fluoro-2,4-dioxo-1,2,3,4-tetrahydroquinazolin-6-yl)-3-methylpentanediamide]	–	–	101%	102%	101%	–
CCn1c(=O)n(CC2CC2)c(=O)c2cc(NC(=O)CC[C@@H](O)C(=O)Nc3ccc(C#N)c(Cl)c3)ccc21 [Example 138, (2R)—N^1-(3-chloro-4-cyanophenyl)-N^5-(3-(cyclopropylmethyl)-1-ethyl-2,4-dioxo-1,2,3,4-tetrahydroquinazolin-6-yl)-2-hydroxypentanediamide]	–	–	104%	100%	104%	–
CCn1c(=O)n(CC2CC2)c(=O)c2cc(NC(=O)CC[C@H](O)C(=O)Nc3ccc(C#N)c(Cl)c3)ccc21 [Example 139, (2S)—N^1-(3-chloro-4-cyanophenyl)-N^5-(3-(cyclopropylmethyl)-1-ethyl-2,4-dioxo-1,2,3,4-tetrahydroquinazolin-6-yl)-2-hydroxypentanediamide]	–	–	102%	102%	104%	–
CCn1c(=O)n(CC2CC2)c(=O)c2cc(NC(=O)[C@@H](O)CCC(=O)Nc3ccc(C#N)c(Cl)c3)ccc21 [Example 141, (2S)—N^5-(3-chloro-4-cyanophenyl)-N^1-(3-(cyclopropylmethyl)-1-ethyl-2,4-dioxo-1,2,3,4-tetrahydroquinazolin-6-yl)-2-hydroxypentanediamide]	–	–	102%	102%	103%	–
